# Measurements published in US4027039A (priority 1975, dated 1977).
# Several values for one entry are separate records, joined by “and”; a condition that tells them apart may be missing. Equal entries are not always repeated. Where two headings read alike, the source gives them in different places.
# Legend:
# Herpes virus [1] = experiment: Herpes virus in chicken eggs, single dose 24 hours pre-infection; assay type: in vivo, chick embryo
# Influenza PR 8 virus [2] = experiment: Influenza PR 8 in mice, oral; schedule by table; late read day 6 (Table 37), 7 (33, 36), 8 (32, 35, 47), 10 (38); control fraction 18/20 (Table 32), 19/20 (Table 35), else 100%; assay type: in vivo, mouse
# Influenza PR 8 virus [3] = experiment: Influenza PR 8 in mice, subcutaneous; late read day 6 (Table 37), 8 (Table 47); assay type: in vivo, mouse
# Influenza PR 8 virus [4] = experiment: Influenza PR 8 in mice, intravenous (Table 31); assay type: in vivo, mouse; settings: total dose .2 μg
# Influenza PR 8 virus [5] = experiment: Influenza PR 8 in mice, drug in drinking water (Table 34); assay type: in vivo, mouse
# Columbia SK Polio virus = assay type: in vivo, mouse
# Vaccinia IHD virus = assay type: in vivo, mouse
# Vaccinia virus = assay type: in vivo, rabbit; settings: rabbit, in vivo; thiosemicarbazone
# Herpes virus [6] = system: Herpes virus
# viral infections = experiment: Antiviral screening in animals, general statements; settings: mouse, in vivo
# [7] = total dose .000005 μg, thiosemicarbazone
# [8] = total dose .00005 μg, listed as 2-butanone thiosemicarbazone
# [9] = total dose .00005 μg, thiosemicarbazone
smiles,measurement,setting,value
"CCC(C)=NNC(N)=S [2-Butanone, thiosemicarbazone, 2-butanone, thiosemicarbazone]",Deaths on day 1,Herpes virus [1]; 2 μg,1
same,Deaths on day 2,Herpes virus [1]; 2 μg,5
same,Deaths on day 3,Herpes virus [1]; 2 μg,3
same,No. dying 5-22 day,Herpes virus [1]; 2 μg,2
same,No. hatched,Herpes virus [1]; 2 μg,1
same,No. living longer than controls,Herpes virus [1]; 2 μg,3
same,"Total deaths, 4th day",Herpes virus [1]; 2 μg,9
same,Deaths on day 2,Herpes virus [1]; 20 μg,5
same,Deaths on day 3,Herpes virus [1]; 20 μg,1
same,Deaths on day 4,Herpes virus [1]; 20 μg,2
same,No. dying 5-22 day,Herpes virus [1]; 20 μg,1
same,No. living longer than controls,Herpes virus [1]; 20 μg,4
same,"Total deaths, 4th day",Herpes virus [1]; 20 μg,8
same,Deaths on day 1,Herpes virus [1]; .00005 μg,2
same,Deaths on day 2,Herpes virus [1]; .00005 μg,4
same,Deaths on day 3,Herpes virus [1]; .00005 μg,5
same,No. dying 5-22 day,Herpes virus [1]; .00005 μg,0
same,No. hatched,Herpes virus [1]; .00005 μg,1
same,No. living longer than controls,Herpes virus [1]; .00005 μg,1
same,"Total deaths, 4th day",Herpes virus [1]; .00005 μg,11
same,Deaths on day 1,Herpes virus [1]; .0005 μg,1
same,Deaths on day 2,Herpes virus [1]; .0005 μg,5
same,Deaths on day 3,Herpes virus [1]; .0005 μg,3
same,Deaths on day 4,Herpes virus [1]; .0005 μg,1
same,No. dying 5-22 day,Herpes virus [1]; .0005 μg,0
same,No. hatched,Herpes virus [1]; .0005 μg,1
same,No. living longer than controls,Herpes virus [1]; .0005 μg,2
same,"Total deaths, 4th day",Herpes virus [1]; .0005 μg,10
same,Deaths on day 1,Herpes virus [1]; .005 μg,2
same,Deaths on day 2,Herpes virus [1]; .005 μg,4
same,Deaths on day 3,Herpes virus [1]; .005 μg,2
same,Deaths on day 4,Herpes virus [1]; .005 μg,3
same,No. dying 5-22 day,Herpes virus [1]; .005 μg,0
same,No. living longer than controls,Herpes virus [1]; .005 μg,1
same,"Total deaths, 4th day",Herpes virus [1]; .005 μg,11
same,Deaths on day 1,Herpes virus [1]; .05 μg,2
same,Deaths on day 2,Herpes virus [1]; .05 μg,6
same,Deaths on day 3,Herpes virus [1]; .05 μg,3
same,No. dying 5-22 day,Herpes virus [1]; .05 μg,1
same,No. living longer than controls,Herpes virus [1]; .05 μg,1
same,"Total deaths, 4th day",Herpes virus [1]; .05 μg,11
same,Deaths on day 1,Herpes virus [1]; .5 μg,1
same,Deaths on day 2,Herpes virus [1]; .5 μg,3
same,Deaths on day 3,Herpes virus [1]; .5 μg,6
same,Deaths on day 4,Herpes virus [1]; .5 μg,2
same,No. dying 5-22 day,Herpes virus [1]; .5 μg,0
same,No. living longer than controls,Herpes virus [1]; .5 μg,0
same,"Total deaths, 4th day",Herpes virus [1]; .5 μg,12
same,Total no. hatched,Herpes virus [1]; all doses,5
same,Total no. living longer than controls,Herpes virus [1]; all doses,12
same,No. animals surviving after 6-10 days,Influenza PR 8 virus [2]; total dose .000005 μg,6
same,Survivors,Influenza PR 8 virus [2]; total dose .000005 μg,0
same,No. animals surviving after 6-10 days,Influenza PR 8 virus [2]; [7],4
same,No. animals surviving when 100% (or given fraction) of controls are dead,Influenza PR 8 virus [2]; [7],2
same,Survivors,Influenza PR 8 virus [2]; [7],1
same,Survivors,Influenza PR 8 virus [2]; total dose .00005 μg,4
same,No. animals surviving after 6-10 days,Influenza PR 8 virus [2]; [8],5
same,Survivors,Influenza PR 8 virus [2]; [8],2
same,No. animals surviving after 6-10 days,Influenza PR 8 virus [2]; [9],8 and 4
same,No. animals surviving when 100% (or given fraction) of controls are dead,Influenza PR 8 virus [2]; [9],4
same,No. animals surviving after 6-10 days,Influenza PR 8 virus [2]; total dose .0005 μg,2
same,No. animals surviving when 100% (or given fraction) of controls are dead,Influenza PR 8 virus [2]; total dose .0005 μg,1
same,Survivors,Influenza PR 8 virus [2]; total dose .0005 μg,1
same,No. animals surviving after 6-10 days,Influenza PR 8 virus [2]; total dose .005 μg,2
same,No. animals surviving when 100% (or given fraction) of controls are dead,Influenza PR 8 virus [2]; total dose .005 μg,1
same,Survivors,Influenza PR 8 virus [2]; total dose .005 μg,1
same,Survivors,"Influenza PR 8 virus [2]; total dose .005 μg, thiosemicarbazone",0
same,No. animals surviving after 6-8 days,Influenza PR 8 virus [3]; total dose .000005 μg,2
same,Survivors,Influenza PR 8 virus [3]; total dose .000005 μg,0
same,Survivors,Influenza PR 8 virus [3]; total dose .00005 μg,0
same,No. animals surviving after 6-8 days,Influenza PR 8 virus [3]; total dose .0005 μg,1
same,Survivors,Influenza PR 8 virus [3]; total dose .0005 μg,1
same,Survivors,Influenza PR 8 virus [3]; total dose .005 μg,0
same,No. animals surviving when 18/20 of controls are dead,Influenza PR 8 virus [4],2
same,Survivors,Influenza PR 8 virus [4],2
same,Survivors,"Influenza PR 8 virus [5]; 0.5 Mg/ml in water, 24 h pre and 24 h post",1
same,Survivors,"Influenza PR 8 virus [5]; 10 Mg/ml in water, 24 h pre and 24 h post",2
same,Survivors,"Influenza PR 8 virus [5]; 24 h post-infection only, first of two printed columns",0
same,No. animals surviving after 5 days,Columbia SK Polio virus; total dose 3 ng,7
same,Survivors,Columbia SK Polio virus; total dose 3 ng,0
same,No. animals surviving after 5 days,Columbia SK Polio virus; total dose 30 ng,8
same,Survivors,Columbia SK Polio virus; total dose 30 ng,0
same,No. animals surviving after 5 days,Columbia SK Polio virus; total dose 300 ng,6
same,Survivors,Columbia SK Polio virus; total dose 300 ng,1
same,Statistical Significance of Tail Lesions,"Vaccinia IHD virus; 10 ng, day 5",< .05
same,Statistical Significance of Tail Lesions,"Vaccinia IHD virus; 10 ng, day 6",< .01
same,Statistical Significance of Tail Lesions,"Vaccinia IHD virus; 10 ng, day 7",< .05
same,Statistical Significance of Tail Lesions,"Vaccinia IHD virus; 10 ng, day 10",< .01
same,Statistical Significance of Tail Lesions,"Vaccinia IHD virus; 10 ng, day 11",< .01
same,Statistical Significance of Tail Lesions,"Vaccinia IHD virus; 10 ng, day 12",< .01
same,Statistical Significance of Tail Lesions,"Vaccinia IHD virus; 10 ng, day 14",< .01
same,Statistical Significance of Tail Lesions,"Vaccinia IHD virus; 10 ng, day 17",< .01
same,Statistical Significance of Tail Lesions,"Vaccinia IHD virus; 10 ng, day 21",< .01
same,Statistical Significance of Tail Lesions,"Vaccinia IHD virus; 1 μg, day 5",< .01
same,Statistical Significance of Tail Lesions,"Vaccinia IHD virus; 1 μg, day 6",< .01
same,Statistical Significance of Tail Lesions,"Vaccinia IHD virus; 1 μg, day 7",< .05
same,Statistical Significance of Tail Lesions,"Vaccinia IHD virus; 1 μg, day 8",< .01
same,Statistical Significance of Tail Lesions,"Vaccinia IHD virus; 1 μg, day 10",< .01
same,Statistical Significance of Tail Lesions,"Vaccinia IHD virus; 1 μg, day 11",< .01
same,Statistical Significance of Tail Lesions,"Vaccinia IHD virus; 1 μg, day 12",< .01
same,Statistical Significance of Tail Lesions,"Vaccinia IHD virus; 1 μg, day 14",< .01
same,Statistical Significance of Tail Lesions,"Vaccinia IHD virus; 1 μg, day 17",< .01
same,Statistical Significance of Tail Lesions,"Vaccinia IHD virus; 1 μg, day 21",< .01
same,Statistical Significance of Tail Lesions,"Vaccinia IHD virus; 10 [μg], day 6",< .01
same,Statistical Significance of Tail Lesions,"Vaccinia IHD virus; 10 [μg], day 7",< .05
same,Statistical Significance of Tail Lesions,"Vaccinia IHD virus; 10 [μg], day 8",< .05
same,Statistical Significance of Tail Lesions,"Vaccinia IHD virus; 10 [μg], day 10",< .01
same,Statistical Significance of Tail Lesions,"Vaccinia IHD virus; 10 [μg], day 11",< .05
same,Statistical Significance of Tail Lesions,"Vaccinia IHD virus; 10 [μg], day 12",< .05
same,Statistical Significance of Tail Lesions,"Vaccinia IHD virus; 10 [μg], day 14",< .05
same,Statistical Significance of Tail Lesions,"Vaccinia IHD virus; 10 [μg], day 17",< .01
same,Statistical Significance of Tail Lesions,"Vaccinia IHD virus; 10 [μg], day 21",< .01
same,Statistical Significance of Tail Lesions,"Vaccinia IHD virus; 100 [ng], day 5",< .05
same,Statistical Significance of Tail Lesions,"Vaccinia IHD virus; 100 [ng], day 6",< .01
same,Statistical Significance of Tail Lesions,"Vaccinia IHD virus; 100 [ng], day 7",< .01
same,Statistical Significance of Tail Lesions,"Vaccinia IHD virus; 100 [ng], day 8",< .01
same,Statistical Significance of Tail Lesions,"Vaccinia IHD virus; 100 [ng], day 10",< .01
same,Statistical Significance of Tail Lesions,"Vaccinia IHD virus; 100 [ng], day 11",< .01
same,Statistical Significance of Tail Lesions,"Vaccinia IHD virus; 100 [ng], day 12",< .01
same,Statistical Significance of Tail Lesions,"Vaccinia IHD virus; 100 [ng], day 14",< .01
same,Statistical Significance of Tail Lesions,"Vaccinia IHD virus; 100 [ng], day 17",< .01
same,Statistical Significance of Tail Lesions,"Vaccinia IHD virus; 100 [ng], day 21",< .01
same,activity in words,"Vaccinia IHD virus; mouse, in vivo",most active of the compounds tested
same,effect on pox formation,Vaccinia virus,variable
same,Survivors,"Herpes virus [6]; mouse, in vivo",2
same,No. animals surviving after 6-9 days,Herpes virus [6]; total dose .000005 μg,1
same,No. animals surviving when 100% (or given fraction) of controls are dead,Herpes virus [6]; total dose .000005 μg,0
same,Survivors,Herpes virus [6]; total dose .000005 μg,0
same,No. animals surviving after 6-9 days,Herpes virus [6]; total dose .00005 μg,8
same,No. animals surviving when 100% (or given fraction) of controls are dead,Herpes virus [6]; total dose .00005 μg,4
same,No. animals surviving after 6-9 days,Herpes virus [6]; total dose .0005 μg,6
same,No. animals surviving when 100% (or given fraction) of controls are dead,Herpes virus [6]; total dose .0005 μg,5
same,Survivors,Herpes virus [6]; total dose .0005 μg,4
same,No. animals surviving after 6-9 days,Herpes virus [6]; total dose .005 μg,4
same,No. animals surviving when 100% (or given fraction) of controls are dead,Herpes virus [6]; total dose .05 μg,0
same,Survivors,Herpes virus [6]; total dose .05 μg,0
same,activity in words,viral infections,one of the most active compounds
